Series [1] can be described thus: Liver microsomal stability, mouse. The following applies: male, pH 7.4, liver microsomes. The format is in vitro ADME. Here is the method: Mouse hepatic microsomes were isolated from pooled (50), perfused livers of male Balb/c mice. Rat hepatic microsomes were isolated from pooled (15), perfused livers of male Wistar rats. Isolation was performed according to the standard protocol (Hill, J. R. in Current Protocols in Pharmacology 7.8.1-7.8.11, Wiley Interscience, 2003). The batches of microsomes were tested for quality control using Imipramine, Propranolol and Verapamil as reference compounds.
Microsomal incubations were carried out in 96-well plates in 5 aliquots of 40 μL each (one for each time point). Liver microsomal incubation medium contained PBS (100 mM, pH 7.4), MgCl2 (3.3 mM), NADPH (3 mM), glucose-6-phosphate (5.3 mM), glucose-6-phosphate dehydrogenase (0.67 units/ml) with 0.42 mg of liver microsomal protein per ml. Control incubations were performed replacing the NADPH-cofactor system with PBS. Test compound (2 μM, final solvent concentration 1.6%) was incubated with microsomes at 37° C., shaking at 100 rpm. Incubations were performed in duplicates. Five time points over 40 minutes have been analyzed. The reactions were stopped by adding 12 volumes of 90% acetonitrile-water to incubation aliquots, followed by protein sedimentation by centrifuging at 5500 rpm for 3 minutes. […]. Supernatants were analyzed using the HPLC system coupled with tandem mass spectrometer (API3000 PE Sciex). Acquisition and analysis of the data were performed using Analyst 1.5.2 software (PE Sciex). The elimination constant (kel), half-life (t½) and intrinsic clearance (Clint) were determined in plot of […] versus time, using linear regression analysis:
Mouse hepatic microsomes were isolated from pooled, perfused livers of male CD1 mice. Rat hepatic microsomes were isolated from pooled, perfused livers of male Sprague Dawley rats. Dog hepatic microsomes were isolated from pooled, perfused livers of male Beagle dogs. The batches of microsomes were tested for quality control using Testosterone, Propranolol and Caffeine as reference compounds.
A 10 mM stock solution of compound in DMSO is diluted three-fold in DMSO. This pre-diluted compound solution is then further diluted to 2 μM in a 50 mM phosphate buffer (PBS, pH 7.4) and pre-warmed at 37° C. This compound dilution is mixed F2 with microsomal/cofactor mix at 37° C. under shaking at 300 rpm. Final reaction conditions are: 100 μL incubation volume, 1 μM of test compound (in duplicate), <0.1% DMSO, 0.5 mg/mL microsomes, 0.6 U/mL Glucose-6-phosphate-dehydrogenase (G6PDH, Roche, 10127671001), 3.3 mM MgCl2 (Sigma, M2670), 3.3 mM glucose-6-phosphate (Sigma, G-7879) and 1.3 mM NADP+ (Sigma, N-0505).
After 60 min of incubation at 300 rpm and 37° C., the reaction was stopped with 3 volumes of STOP solution (acetonitrile/MeOH 2/1 with diclofenac as internal standard). For the time point zero, 3 volumes of STOP solution were added to the compound dilution before the microsome mix was added. Six time points over 60 minutes have been analyzed. The samples of all time points were centrifuged, filtered and the supernatant analyzed by LCMS/MS (systems API4000).
The instrument responses (peak areas/IS peak area) were referenced to the zero time-point samples (considered as 100%) in order to determine the percentage of compound remaining.
Testosterone (1 μM) and Propranolol and Caffeine (1 μM) were used as reference compounds, being unstable and stable compounds respectively. If the microsomal stability values for these controls are not in the range determined by the historical data, the assay is not validated. The solubility of the compound in the final test concentration in 50 mM buffer pH 7.4 is checked by microscope to indicate whether precipitation is observed or not. If a precipitate is observed, no data of microsomal stability is generated.

Series [2] in a line: Liver microsomal stability, rat. The following applies: male, pH 7.4, liver microsomes. The format is in vitro ADME.
Series [3] addresses human AT1R (Homo sapiens (Human), UniProt P30556). Put plainly: Counterscreen radioligand binding assay, displacement of 125I-[Sar1, Ile8]-Angiotensin II, hAT1R WT. The following applies: 125I-[Sar1, Ile8]-Ang II, semi-quantitative score; for inhibition at 1 µM: compound at 1 μM, read-out: % Displaced radioligand at 1 μM; for inhibition at 10 µM: compound at 10 μM, read-out: % Displaced radioligand at 10 μM. In short, it runs like this: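 Compounds displaced 0.05 nM 125I-[Sar1, Ile8]-Ang II from human AT1R in HEK-293 membranes (1 h, 25° C; Tris/MgCl2/EDTA/BSA buffer, pH 7.4). Readout was filtration and scintillation counting, with non-specific binding set by 10 μM [Sar1]-Ang II. Values are % displacement at 1 μM and […], or IC50 from eight-point four-parameter fits.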

This passage reports microsomal CLint and inhibition results from patent publication US20240368133A1, “Compounds for the Treatment of Pain, in Particular, Neuropathic Pain, and/or Other Diseases or Disorders that are Associated with AT2R and/or AT2R Mediated Signaling” (Confo Therapeutics N.V., priority 2021, published 2024).

human AT1R, sequence (P30556 whole entry): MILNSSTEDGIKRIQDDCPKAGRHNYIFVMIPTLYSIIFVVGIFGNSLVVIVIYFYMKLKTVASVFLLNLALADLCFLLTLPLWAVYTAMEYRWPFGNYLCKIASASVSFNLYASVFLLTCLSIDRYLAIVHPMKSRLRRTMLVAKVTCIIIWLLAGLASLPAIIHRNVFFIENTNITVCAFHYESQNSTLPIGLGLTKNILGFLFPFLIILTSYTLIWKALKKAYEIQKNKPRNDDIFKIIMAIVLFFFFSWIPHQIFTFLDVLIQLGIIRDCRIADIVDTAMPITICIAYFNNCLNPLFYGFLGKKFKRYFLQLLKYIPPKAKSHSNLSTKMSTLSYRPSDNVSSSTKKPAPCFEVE

`CCC1CN(c2cc(CC(C)C)cc(F)c2-c2nn[nH]n2)CCN1Cc1cccnn1` (stereo not drawn) [Compound A-178, 3-[[2-ethyl-4-[3-fluoro-5-isobutyl-2-(2H-tetrazol-5-yl)phenyl]piperazin-1-yl]methyl]pyridazine] yielded a microsomal CLint in series [1] of 15 µL/min/mg. The intrinsic clearance (microsomal CLint) in series [2] was found to be 5 µL/min/mg. Further, in series [3], the inhibition at 1 µM was less than 30% and the inhibition at 10 µM is less than 30%.

Consider `CCC1CN(Cc2cccnn2)CCN1c1cc(CC(C)C)cc(F)c1-c1nn[nH]n1` (stereo not drawn) [Compound A-181, 3-[[3-ethyl-4-[3-fluoro-5-isobutyl-2-(2H-tetrazol-5-yl)phenyl]piperazin-1-yl]methyl]pyridazine], for which the microsomal CLint in series [1] was 6 µL/min/mg; in series [2] it was 5 µL/min/mg. In series [3], the inhibition at 1 µM is less than 30%. In series [3], the inhibition at 10 µM is less than 30%.

Take `CC(C)Cc1cc(F)c(-c2nn[nH]n2)c(N2CC(C)N(Cc3cccnn3)CC2C)c1` (stereo not drawn) [Compound A-183, 3-[[4-[3-fluoro-5-isobutyl-2-(2H-tetrazol-5-yl)phen-yl]-2,5-dimethyl-piperazin-1-yl]-methyl]pyridazine]: the microsomal CLint in series [1] turned out to be 12 µL/min/mg. This molecule returned a microsomal CLint in series [2] of 7 µL/min/mg. Further, in series [3], the inhibition at 1 µM is less than 30% and the inhibition at 10 µM was less than 30%.
